# Measured values reported in ChEMBL document CHEMBL1134291, “The synthesis of a prodrug of doxorubicin designed to provide reduced systemic toxicity and greater target efficacy” (J Med Chem, 2001).
# Experiments:
# Mus musculus [1] = experiment: Percentage weight reduction relative to vehicle control following intraperitoneal (ip) injection of conjugate dose for 5 consecutive days to nude mice bearing LNCaP tumor xenografts( 21.7 umol/kg dose)
# Mus musculus [2] = experiment: Maximum nonlethal drug dose which could be administered (ip) to non tumor bearing nude mice for 5 consecutive days; type: functional
# DuPro = experiment: Concentration required to kill 50% of tumor cells in PSA nonproducing DuPRO human prostate cancer cell line; type: functional, cell-based
# LNCaP [3] = experiment: Concentration required to kill 50% of tumor cells in PSA producing LNCaP human prostate cancer cell line; type: functional, cell-based
# LNCaP [4] = experiment: Percentage PSA reduction relative to vehicle control following intraperitoneal injection of conjugate dose for 5 consecutive days to nude mice bearing LNCaP tumor xenografts; type: functional, Homo sapiens
# PSA = experiment: Time required for PSA to hydrolyze 50% (t1/2); type: ADME; conditions: PSA (enzyme)
# Mus musculus [5] = experiment: Percentage weight reduction relative to vehicle control following intraperitoneal (ip) injection of conjugate dose for 5 consecutive days to nude mice bearing LNCaP tumor xenografts(18.9 umol/kg dose); type: functional
Structure (SMILES),Reduction (Mus musculus [1]),MTD (Mus musculus [2]),EC50 (DuPro),EC50 (LNCaP [3]),Reduction (LNCaP [4]),half-life (PSA),Reduction (Mus musculus [5])
COc1cccc2c1C(=O)c1c(O)c3c(c(O)c1C2=O)C[C@@](O)(C(=O)CO)C[C@@H]3OC1CC(NC(=O)[C@H](CC(C)C)NC(=O)[C@H](CO)NC(=O)[C@@H](CCC(N)=O)NC(=O)[C@@H](NC(=O)[C@H](CO)NC(=O)[C@H](C)NC(=O)C2CC(O)CN2C(=O)CCC(=O)O)C2CCCCC2)C(O)C(C)O1 (some centres not stated),72%,28.9 µM/kg,100 µM,5.7 µM,94%,55 min,–
COc1cccc2c1C(=O)c1c(O)c3c(c(O)c1C2=O)C[C@@](O)(C(=O)CO)C[C@@H]3OC1CC(NC(=O)[C@H](CC(C)C)NC(=O)[C@H](CO)NC(=O)[C@@H](CCC(N)=O)NC(=O)[C@H](Cc2ccc(O)cc2)NC(=O)[C@H](CO)NC(=O)[C@H](C)NC(=O)[C@H](CCCN)NC(C)=O)C(O)C(C)O1 (some centres not stated),–,>45.3 µM/kg,> 100 µM,85 µM,22%,> 1200 min,26%
